# Test results reported in patent EP4722207A1, “OXOISOINDOLINYL-SUBSTITUTED TETRAHYDROPYRIMIDINEDIONE DERIVATIVE AND USE THEREOF” (Gluetacs Therapeutics (Shanghai) Co., Ltd., priority 2023, dated 2024).
# Experiments:
# [1] = system: H292; assay: Cell viability assay (CellTiter-Meiluncell Luminescent), tumor cell proliferation, H292; conditions: Homo sapiens, NCI-H292, 96 h; for inhibition at 0.01 µM: read-out: Inhibition Rate at 10 nM (%); for inhibition at 0.5 µM: read-out: Inhibition Rate at 500 nM (%)
# Procedure: (§1) The tumor cells used herein were cultured in a cell culture medium listed in table 2 at 37°C in an incubator with 5% CO2. Prior to experimentation, all cell lines used were correctly identified by STR profiling, and tested negative for mycoplasma contamination using a mycoplasma detection kit through routine screenings.
# (§2) On the following day, the test compounds of the present disclosure were subjected to serial dilution. […] Subsequently, 0.5 µL of the test compound dilution was transferred into the 96-well plate containing the cells, with each well containing 100 µL of cell culture medium. […] Into the 96-well plate, the diluted test compounds and corresponding detection reagents were added, resulting in final test compound concentrations of 500 nM and 10 nM, respectively. The experimental procedure is described below using the diluted 2 µM test compound as an example.
# (§3) After the cells were treated with the compounds of the present disclosure for a specified period, the cell viability assay reagent was added to the culture medium according to the kit's instructions to determine cell viability. […] All controls were treated using the same procedure as the compounds of the present disclosure. The growth inhibition curves for the compounds of the present disclosure were plotted using Prism GraphPad software, and the IC50 values were calculated therefrom.
# [2] = system: MDA-MB-231; assay: Cell viability assay (CellTiter-Meiluncell Luminescent), tumor cell proliferation, MDA-MB-231; conditions: Homo sapiens, MDA-MB-231, 96 h; for inhibition at 0.01 µM: read-out: Inhibition Rate at 10 nM (%); for inhibition at 0.5 µM: read-out: Inhibition Rate at 500 nM (%)
# [3] = biological target: T1, WEE1 (Homo sapiens, UniProt P30291+Q96SW2); assay: Western-blot assay, substrate protein degradation in hPBMCs: WEE1; format: cell-based; conditions: 24 hours of compound treatment, 50 nM and 500 nM
# T1 construct: effects of the compounds of the present disclosure on the expression of target proteins in cells; endogenous in cells; host or cells: human PBMCs (hPBMCs)
# [4] = biological target: T2, IKZF1 (Homo sapiens, UniProt Q13422+Q96SW2); assay: Western-blot assay, substrate protein degradation in hPBMCs: IKZF1; format: cell-based; conditions: 24 hours of compound treatment, 50 nM and 500 nM
# T2 construct: effects of the compounds of the present disclosure on the expression of target proteins in cells; endogenous in cells; host or cells: human PBMCs (hPBMCs)
# [5] = biological target: T3, IKZF2 (Homo sapiens, UniProt Q96SW2+Q9UKS7); assay: Western-blot assay, substrate protein degradation in hPBMCs: IKZF2; format: cell-based; conditions: 24 hours of compound treatment, 50 nM and 500 nM
# T3 construct: effects of the compounds of the present disclosure on the expression of target proteins in cells; endogenous in cells; host or cells: human PBMCs (hPBMCs)
# [6] = biological target: T4, IKZF3 (Homo sapiens, UniProt Q96SW2+Q9UKT9); assay: Western-blot assay, substrate protein degradation in hPBMCs: IKZF3; format: cell-based; conditions: 24 hours of compound treatment, 50 nM and 500 nM
# T4 construct: effects of the compounds of the present disclosure on the expression of target proteins in cells; endogenous in cells; host or cells: human PBMCs (hPBMCs)
# [7] = biological target: T5, CK1α (Homo sapiens, UniProt P48729+Q96SW2); assay: Western-blot assay, substrate protein degradation in hPBMCs: CK1α; format: cell-based; conditions: 24 hours of compound treatment, 50 nM and 500 nM
# T5 construct: effects of the compounds of the present disclosure on the expression of target proteins in cells; endogenous in cells; host or cells: human PBMCs (hPBMCs)
# [8] = biological target: T6, GSPT1 (Homo sapiens, UniProt P15170+Q96SW2); assay: Western-blot assay, substrate protein degradation in hPBMCs: GSPT1; format: cell-based; conditions: 24 hours of compound treatment, 50 nM and 500 nM
# T6 construct: effects of the compounds of the present disclosure on the expression of target proteins in cells; endogenous in cells; host or cells: human PBMCs (hPBMCs)
# [9] = system: MV-4-11; assay: Cell viability assay (CellTiter-Meiluncell Luminescent), tumor cell proliferation, MV-4-11; conditions: Homo sapiens, MV4-11, 96 h; for inhibition at 0.01 µM: read-out: Inhibition Rate at 10 nM (%); for inhibition at 0.5 µM: read-out: Inhibition Rate at 500 nM (%)
# Procedure: as §1, §2, §3
# T3 sequence (Q9UKS7 whole entry): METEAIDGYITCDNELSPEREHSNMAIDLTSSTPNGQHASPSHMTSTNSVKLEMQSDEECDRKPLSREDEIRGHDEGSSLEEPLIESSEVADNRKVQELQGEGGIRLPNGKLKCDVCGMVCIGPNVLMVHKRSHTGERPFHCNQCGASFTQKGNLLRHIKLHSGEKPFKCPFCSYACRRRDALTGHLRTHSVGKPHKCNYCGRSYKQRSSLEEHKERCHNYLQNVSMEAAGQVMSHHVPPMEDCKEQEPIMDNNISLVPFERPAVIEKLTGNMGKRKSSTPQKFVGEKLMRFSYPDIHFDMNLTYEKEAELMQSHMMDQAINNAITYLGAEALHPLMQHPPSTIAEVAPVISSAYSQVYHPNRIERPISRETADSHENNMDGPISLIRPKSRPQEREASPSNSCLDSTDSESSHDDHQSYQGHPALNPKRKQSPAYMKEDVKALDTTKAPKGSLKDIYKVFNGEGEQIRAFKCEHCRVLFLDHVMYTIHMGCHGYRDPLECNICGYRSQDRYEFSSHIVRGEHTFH
# T3 sequence (Q96SW2 whole entry): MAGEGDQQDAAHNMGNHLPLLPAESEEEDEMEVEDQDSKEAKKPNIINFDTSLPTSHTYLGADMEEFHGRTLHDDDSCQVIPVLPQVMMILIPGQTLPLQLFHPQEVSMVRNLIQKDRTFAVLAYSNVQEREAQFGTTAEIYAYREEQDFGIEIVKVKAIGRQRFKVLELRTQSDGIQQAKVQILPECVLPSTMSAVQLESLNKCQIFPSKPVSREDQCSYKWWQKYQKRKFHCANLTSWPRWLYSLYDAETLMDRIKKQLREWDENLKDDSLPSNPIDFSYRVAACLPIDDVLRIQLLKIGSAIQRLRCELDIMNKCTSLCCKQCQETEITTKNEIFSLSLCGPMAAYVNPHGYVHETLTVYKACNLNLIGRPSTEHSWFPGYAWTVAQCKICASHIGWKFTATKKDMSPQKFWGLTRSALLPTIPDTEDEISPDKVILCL
# T3 sequence (Q16531 whole entry partner): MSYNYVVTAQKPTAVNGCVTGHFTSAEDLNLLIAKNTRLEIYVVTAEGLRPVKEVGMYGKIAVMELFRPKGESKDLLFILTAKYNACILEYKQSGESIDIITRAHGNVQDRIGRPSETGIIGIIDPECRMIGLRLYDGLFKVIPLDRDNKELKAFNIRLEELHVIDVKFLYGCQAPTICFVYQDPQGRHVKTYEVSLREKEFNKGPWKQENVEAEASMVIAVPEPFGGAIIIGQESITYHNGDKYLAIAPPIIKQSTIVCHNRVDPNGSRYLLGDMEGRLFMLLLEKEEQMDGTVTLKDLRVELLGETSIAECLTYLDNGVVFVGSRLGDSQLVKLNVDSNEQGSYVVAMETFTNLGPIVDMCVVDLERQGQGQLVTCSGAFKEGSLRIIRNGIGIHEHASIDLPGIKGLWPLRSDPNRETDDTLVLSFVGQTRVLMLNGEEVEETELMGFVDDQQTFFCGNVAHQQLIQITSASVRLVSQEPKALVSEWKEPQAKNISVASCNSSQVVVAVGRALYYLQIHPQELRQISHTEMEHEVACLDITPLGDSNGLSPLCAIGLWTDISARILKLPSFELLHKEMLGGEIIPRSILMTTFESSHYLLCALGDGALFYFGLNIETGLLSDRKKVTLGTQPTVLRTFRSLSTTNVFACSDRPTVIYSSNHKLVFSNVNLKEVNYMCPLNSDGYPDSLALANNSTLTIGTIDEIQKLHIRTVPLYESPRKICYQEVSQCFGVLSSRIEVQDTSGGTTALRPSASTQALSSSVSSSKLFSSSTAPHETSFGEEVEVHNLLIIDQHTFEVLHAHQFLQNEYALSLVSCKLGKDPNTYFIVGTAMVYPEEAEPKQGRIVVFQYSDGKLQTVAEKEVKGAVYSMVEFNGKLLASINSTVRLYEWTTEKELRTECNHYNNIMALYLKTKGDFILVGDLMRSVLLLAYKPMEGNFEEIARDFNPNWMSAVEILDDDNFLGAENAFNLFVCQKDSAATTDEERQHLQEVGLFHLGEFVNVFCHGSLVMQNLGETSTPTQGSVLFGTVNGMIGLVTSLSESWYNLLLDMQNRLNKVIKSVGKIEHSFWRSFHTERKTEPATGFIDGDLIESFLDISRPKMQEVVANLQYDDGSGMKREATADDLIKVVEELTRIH
# T2 sequence (Q13422 whole entry): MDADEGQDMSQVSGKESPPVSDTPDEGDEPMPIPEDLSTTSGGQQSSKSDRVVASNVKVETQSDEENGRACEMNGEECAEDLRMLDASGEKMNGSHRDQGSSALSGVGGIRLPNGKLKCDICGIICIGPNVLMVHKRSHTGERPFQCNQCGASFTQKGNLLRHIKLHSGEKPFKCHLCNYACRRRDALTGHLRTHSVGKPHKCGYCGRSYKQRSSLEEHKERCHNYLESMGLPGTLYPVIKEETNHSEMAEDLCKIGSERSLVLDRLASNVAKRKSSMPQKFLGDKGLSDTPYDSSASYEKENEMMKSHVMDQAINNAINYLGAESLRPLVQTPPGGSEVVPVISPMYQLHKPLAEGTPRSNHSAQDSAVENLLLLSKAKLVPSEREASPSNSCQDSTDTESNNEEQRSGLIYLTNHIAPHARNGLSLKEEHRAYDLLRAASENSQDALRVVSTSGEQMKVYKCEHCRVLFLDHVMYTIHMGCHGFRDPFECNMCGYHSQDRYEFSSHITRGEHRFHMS
# T2 sequence (Q96SW2 whole entry): as the sequence (Q96SW2 whole entry) above
# T2 sequence (Q16531 whole entry partner): as the sequence (Q16531 whole entry partner) above
# T5 sequence (P48729 whole entry): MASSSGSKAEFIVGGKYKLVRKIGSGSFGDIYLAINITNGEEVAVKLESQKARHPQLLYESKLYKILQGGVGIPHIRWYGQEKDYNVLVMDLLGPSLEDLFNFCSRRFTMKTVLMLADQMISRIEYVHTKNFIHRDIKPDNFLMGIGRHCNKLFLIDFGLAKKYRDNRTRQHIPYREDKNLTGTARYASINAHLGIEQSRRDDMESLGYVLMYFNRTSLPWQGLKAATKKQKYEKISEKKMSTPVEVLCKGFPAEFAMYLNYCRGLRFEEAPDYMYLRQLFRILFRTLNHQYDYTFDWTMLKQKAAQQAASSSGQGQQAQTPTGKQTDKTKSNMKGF
# T5 sequence (Q96SW2 whole entry): as the sequence (Q96SW2 whole entry) above
# T5 sequence (Q16531 whole entry partner): as the sequence (Q16531 whole entry partner) above
# T1 sequence (P30291 whole entry): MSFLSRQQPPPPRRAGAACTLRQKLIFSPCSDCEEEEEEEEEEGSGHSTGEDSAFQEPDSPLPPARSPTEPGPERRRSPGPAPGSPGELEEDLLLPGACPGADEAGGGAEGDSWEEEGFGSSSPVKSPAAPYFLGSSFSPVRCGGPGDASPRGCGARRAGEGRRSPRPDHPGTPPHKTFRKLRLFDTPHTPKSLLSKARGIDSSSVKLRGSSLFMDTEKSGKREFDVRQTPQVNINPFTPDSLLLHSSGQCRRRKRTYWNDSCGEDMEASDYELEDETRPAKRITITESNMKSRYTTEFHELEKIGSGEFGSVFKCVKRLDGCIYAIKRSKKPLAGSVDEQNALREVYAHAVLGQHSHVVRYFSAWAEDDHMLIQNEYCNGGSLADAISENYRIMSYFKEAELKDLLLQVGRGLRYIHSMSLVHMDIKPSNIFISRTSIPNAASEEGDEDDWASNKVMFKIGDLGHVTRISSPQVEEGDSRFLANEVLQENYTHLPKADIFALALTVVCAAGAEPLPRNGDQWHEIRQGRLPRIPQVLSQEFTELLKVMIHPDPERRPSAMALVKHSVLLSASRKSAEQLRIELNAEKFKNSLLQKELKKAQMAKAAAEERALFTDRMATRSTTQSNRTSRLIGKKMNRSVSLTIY
# T1 sequence (Q96SW2 whole entry): as the sequence (Q96SW2 whole entry) above
# T1 sequence (Q16531 whole entry partner): as the sequence (Q16531 whole entry partner) above
# T6 sequence (P15170 whole entry): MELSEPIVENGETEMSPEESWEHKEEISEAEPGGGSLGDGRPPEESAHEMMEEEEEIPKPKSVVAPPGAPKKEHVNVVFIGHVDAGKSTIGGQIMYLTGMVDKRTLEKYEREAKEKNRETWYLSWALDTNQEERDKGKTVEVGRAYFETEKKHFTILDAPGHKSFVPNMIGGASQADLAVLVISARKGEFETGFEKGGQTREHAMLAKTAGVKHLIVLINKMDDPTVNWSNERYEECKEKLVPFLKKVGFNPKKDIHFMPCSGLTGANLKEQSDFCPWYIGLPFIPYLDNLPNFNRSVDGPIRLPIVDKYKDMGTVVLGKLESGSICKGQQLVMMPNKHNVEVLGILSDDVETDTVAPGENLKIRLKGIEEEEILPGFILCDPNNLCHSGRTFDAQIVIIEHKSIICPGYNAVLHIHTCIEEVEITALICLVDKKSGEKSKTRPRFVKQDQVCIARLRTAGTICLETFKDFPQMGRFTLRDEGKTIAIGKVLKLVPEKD
# T6 sequence (Q96SW2 whole entry): as the sequence (Q96SW2 whole entry) above
# T6 sequence (Q16531 whole entry partner): as the sequence (Q16531 whole entry partner) above
SMILES,inhibition at 0.01 µM [1] [%],inhibition at 0.5 µM [1] [%],inhibition at 0.01 µM [2] [%],inhibition at 0.5 µM [2] [%],substrate protein remaining % WEE1 [3],substrate protein remaining % IKZF1 [4],substrate protein remaining % IKZF2 [5],substrate protein remaining % IKZF3 [6],substrate protein remaining % CK1α [7],substrate protein remaining % GSPT1 [8],inhibition at 0.01 µM [9] [%],inhibition at 0.5 µM [9] [%]
"CC1(C)[C@@H]2CC[C@]1(CS(=O)(=O)NCc1ccc3c(c1)C(=O)N(N1CCC(=O)NC1=O)C3=O)C(=O)C2 [GT-07998, 1-((1R,4R)-7,7-dimethyl-2-oxobicyclo[2.2.1]heptan-1-yl)-N-((2-(2,4-dioxotetrahydropyrimidin-1(2H)-yl)-1,3-dioxoisoindolin-5-yl)methyl)methanesulfonamide]",15 to 20,1 to 5,25 to 40,10 to 15,,,,,,,,
"Cc1csc2ncnc(N3CCN(Cc4ccc5c(c4)CN(N4CCC(=O)NC4=O)C5=O)CC3)c12 [GT-08058, 1-(5-((4-(5-methylthieno[2,3-d]pyrimidin-4-yl)piperazin-1-yl)methyl)-1-oxoisoindolin-2-yl)dihydropyrimidine-2,4(1H,3H)-dione]",,,25 to 40,15 to 18,B (80%< substrate protein remaining %≤ 100%),A (0% ≤ substrate protein remaining % ≤ 80%),B (80%< substrate protein remaining %≤ 100%),B (80%< substrate protein remaining %≤ 100%),B (80%< substrate protein remaining %≤ 100%),B (80%< substrate protein remaining %≤ 100%),,
"Cc1nc(N2CCN(Cc3ccc4c(c3)CN(N3CCC(=O)NC3=O)C4=O)CC2)c2ccsc2n1 [GT-08067, 1-(5-((4-(2-methylthieno[2,3-d]pyrimidin-4-yl)piperazin-1-yl)methyl)-1-oxoisoindolin-2-yl)dihydropyrimidine-2,4(1H,3H)-dione]",20 to 40,20 to 40,,,B (80%< substrate protein remaining %≤ 100%),B (80%< substrate protein remaining %≤ 100%),A (0% ≤ substrate protein remaining % ≤ 80%),B (80%< substrate protein remaining %≤ 100%),B (80%< substrate protein remaining %≤ 100%),B (80%< substrate protein remaining %≤ 100%),60 to 80,40 to 60
"Cc1nc(N2CCN(Cc3ccc4c(c3)CN(N3CCC(=O)NC3=O)C4=O)CC2)c2c3c(sc2n1)CCCC3 [GT-08068, 1-(5-((4-(2-methyl-5,6,7,8-tetrahydrobenzo[4,5]thieno[2,3-d]pyrimidin-4-yl)piperazin-1-yl)methyl)-1-oxoisoindolin-2-yl)dihydropyrimidine-2,4(1H,3H)-dione]",20 to 40,20 to 40,,,B (80%< substrate protein remaining %≤ 100%),B (80%< substrate protein remaining %≤ 100%),A (0% ≤ substrate protein remaining % ≤ 80%),B (80%< substrate protein remaining %≤ 100%),A (0% ≤ substrate protein remaining % ≤ 80%),B (80%< substrate protein remaining %≤ 100%),18 to 25,18 to 25
"O=C1CCN(N2C(=O)c3ccc(CN4CCC(c5ncnc6sccc56)CC4)cc3C2=O)C(=O)N1 [GT-08106, 2-(2,4-dioxotetrahydropyrimidin-1(2H)-yl)-5-((4-(thieno[2,3-d]pyrimidin-4-yl)piperidin-1-yl)methyl)isoindoline-1,3-dione]",,,,,A (0% ≤ substrate protein remaining % ≤ 80%),B (80%< substrate protein remaining %≤ 100%),B (80%< substrate protein remaining %≤ 100%),B (80%< substrate protein remaining %≤ 100%),B (80%< substrate protein remaining %≤ 100%),A (0% ≤ substrate protein remaining % ≤ 80%),10 to 18,18 to 25
"Cc1cc2c(C3CCN(Cc4ccc5c(c4)C(=O)N(N4CCC(=O)NC4=O)C5=O)CC3)ncnc2s1 [GT-08107, 2-(2,4-dioxotetrahydropyrimidin-1(2H)-yl)-5-((4-(6-methylthieno[2,3-d]pyrimidin-4-yl)piperidin-1-yl)methyl)isoindoline-1,3-dione]",5 to 10,10 to 15,,,A (0% ≤ substrate protein remaining % ≤ 80%),A (0% ≤ substrate protein remaining % ≤ 80%),A (0% ≤ substrate protein remaining % ≤ 80%),A (0% ≤ substrate protein remaining % ≤ 80%),A (0% ≤ substrate protein remaining % ≤ 80%),A (0% ≤ substrate protein remaining % ≤ 80%),30 to 40,40 to 60
"O=C1CCN(N2C(=O)c3ccc(CN4CCC(c5ncnc6sc(-c7ccccc7)cc56)CC4)cc3C2=O)C(=O)N1 [GT-08108, 2-(2,4-dioxotetrahydropyrimidin-1(2H)-yl)-5-((4-(6-phenylthieno[2,3-d]pyrimidin-4-yl)piperidin-1-yl)methyl)isoindoline-1,3-dione]",20 to 40,15 to 20,25 to 40,18 to 25,A (0% ≤ substrate protein remaining % ≤ 80%),A (0% ≤ substrate protein remaining % ≤ 80%),A (0% ≤ substrate protein remaining % ≤ 80%),A (0% ≤ substrate protein remaining % ≤ 80%),A (0% ≤ substrate protein remaining % ≤ 80%),A (0% ≤ substrate protein remaining % ≤ 80%),,
"O=C1CCN(N2C(=O)c3ccc(CN4CCC(c5ncnc6scc(-c7ccccc7)c56)CC4)cc3C2=O)C(=O)N1 [GT-08109, 2-(2,4-dioxotetrahydropyrimidin-1(2H)-yl)-5-((4-(5-phenylthieno[2,3-d]pyrimidin-4-yl)piperidin-1-yl)methyl)isoindoline-1,3-dione]",15 to 20,1 to 5,18 to 25,5 to 10,A (0% ≤ substrate protein remaining % ≤ 80%),A (0% ≤ substrate protein remaining % ≤ 80%),A (0% ≤ substrate protein remaining % ≤ 80%),A (0% ≤ substrate protein remaining % ≤ 80%),A (0% ≤ substrate protein remaining % ≤ 80%),A (0% ≤ substrate protein remaining % ≤ 80%),,
"O=C1CCN(N2C(=O)c3ccc(CN4CCN(c5nccc(Cl)c5F)CC4)cc3C2=O)C(=O)N1 [GT-08190, 5-((4-(4-chloro-3-fluoropyridin-2-yl)piperazin-1-yl)methyl)-2-(2,4-dioxotetrahydropyrimidin-1(2H)-yl)isoindoline-1,3-dione]",20 to 40,20 to 40,18 to 25,10 to 15,,,,,,,,
